Data as given in patent US5391540A, “Substituted pyridine compounds” (Rohm and Haas Company, priority 1993, dated 1995).

How the values were obtained:
Assay in all cases: Pre-emergent herbicidal activity (Table A)
Assay type in all cases: in vivo
[1] = system: Rhizome Johnsongrass; settings: Sorghum halepense, pre-emergence, Rhjg, 11.2 kg/ha, 10-14 days, read-out: herbicidal rating (% inhibition)
Method in brief: (§1)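 Seeds or perennial propagules set on compacted topsoil, then covered with soil mixed with a known amount of test compound applied in acetone or water carrier. Ratings assigned on a scale based on percent inhibition of each species.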

[2] = system: Downy Brome; settings: Bromus tectorum, pre-emergence, Dobr, 11.2 kg/ha, 10-14 days, read-out: herbicidal rating (% inhibition)
Method in brief: as §1

[3] = system: Cocklebur; settings: Xanthium strumarium, pre-emergence, Cobu, 11.2 kg/ha, 10-14 days, read-out: herbicidal rating (% inhibition)
Method in brief: as §1

[4] = system: Canada thistle; settings: Cirsium arvense, pre-emergence, Cath, 11.2 kg/ha, 10-14 days, read-out: herbicidal rating (% inhibition)
Method in brief: as §1

[5] = system: Common Lambsquarters; settings: Chenopodium album, pre-emergence, Colq, 11.2 kg/ha, 10-14 days, read-out: herbicidal rating (% inhibition)
Method in brief: as §1

[6] = system: Velvetleaf; settings: Abutilon theophrasti, pre-emergence, Vele, 11.2 kg/ha, 10-14 days, read-out: herbicidal rating (% inhibition)
Method in brief: as §1

[7] = system: Yellow Nutsedge; settings: Cyperus, pre-emergence, Yens, 11.2 kg/ha, 10-14 days, read-out: herbicidal rating (% inhibition)
Method in brief: as §1

[8] = system: Quackgrass; settings: pre-emergence, Rhqg, 11.2 kg/ha, 10-14 days, read-out: herbicidal rating (% inhibition)
Method in brief: as §1

[9] = system: Pennsylvania Smartweed; settings: pre-emergence, Pesw, 11.2 kg/ha, 10-14 days, read-out: herbicidal rating (% inhibition)
Method in brief: as §1

[10] = system: Barnyardgrass; settings: Echinochloa crus-galli, pre-emergence, Bygr, 11.2 kg/ha, 10-14 days, read-out: herbicidal rating (% inhibition)
Method in brief: as §1

[11] = system: Morningglory; settings: Ipomoea, pre-emergence, Mogl, 11.2 kg/ha, 10-14 days, read-out: herbicidal rating (% inhibition)
Method in brief: as §1

| SMILES | inhibition at 11200 g/ha [1] [%] | inhibition at 11200 g/ha [2] [%] | inhibition at 11200 g/ha [3] [%] | inhibition at 11200 g/ha [4] [%] | inhibition at 11200 g/ha [5] [%] | inhibition at 11200 g/ha [6] [%] | inhibition at 11200 g/ha [7] [%] | inhibition at 11200 g/ha [8] [%] | inhibition at 11200 g/ha [9] [%] | inhibition at 11200 g/ha [10] [%] | inhibition at 11200 g/ha [11] [%] |
| --- | --- | --- | --- | --- | --- | --- | --- | --- | --- | --- | --- |
| COc1nc(C(F)(F)F)c(C(=O)SC)c(C2CCC2)c1C(=O)SC [Compound 65, 3,5 pyridinedicarbothioic acid, 4-cyclobuty1-2-methoxy-6-(trifluoromethyl)-, S,S-dimethyl ester] | 0 to 24 | 75 to 100 | 25 to 49 | 75 to 100 | 75 to 100 | 75 to 100 | 25 to 49 | 50 to 74 | 75 to 100 | 75 to 100 | 75 to 100 |
| COC(=O)c1c(C(F)(F)F)nc(OC)c(-n2cccc2)c1CC(C)C [Compound 14, 3-pyridinecarboxylic acid, 6-methoxy-4-(2-methylpropyl)-5-(1H-pyrro1-1-yl)-2-(trifluoromethyl)-, methyl ester] | 75 to 100 | 75 to 100 | 0 to 24 | 75 to 100 | 75 to 100 | 75 to 100 | 0 to 24 | 50 to 74 | 75 to 100 | 75 to 100 | 75 to 100 |
| COC(=O)c1c(C(F)(F)F)[nH]c(=O)c(C#N)c1CC(C)C [Compound 22, 3-pyridinecarboxylic acid, 5-cyano-1,6-dihydro-4-(2-methylpropyl)-6-oxo-2-(trifluoromethyl)-, methyl ester] | 0 to 24 | 0 to 24 | 0 to 24 | 0 to 24 | 0 to 24 | 0 to 24 | 0 to 24 | 0 to 24 | 0 to 24 | 0 to 24 | 0 to 24 |
| COc1nc(C(F)(F)F)c(C(=O)SC)c(C2CC2)c1C(=O)SC [Compound 12, 3,5-pyridinedicarbothioic acid, 4-cyclopropy1-2-methoxy-6-(trifluoromethyl)-, S,S-dimethyl ester] | 0 to 24 | 75 to 100 | 25 to 49 | 25 to 49 | 75 to 100 | 75 to 100 | 25 to 49 | 75 to 100 | 75 to 100 | 75 to 100 | 75 to 100 |
| COC(=O)c1c(OC)nc(C(F)(F)F)c(C(=O)N2CCCCC2)c1CC(C)C [Compound 67, 3-pyridinecarboxylic acid, 2-methoxy-4-(2-methylpropyl)-5-(1-piperidinylcarbonyl)-6-(trifluoromethyl)-, methyl ester] | 0 to 24 | 75 to 100 | 0 to 24 | 75 to 100 | 75 to 100 | 50 to 74 | 0 to 24 | 75 to 100 | 75 to 100 | 75 to 100 | 75 to 100 |
| COC(=O)c1c(OC)nc(C(F)F)c(C(=O)OC)c1CC(C)C [Compound 31, 3,5-pyridinedicarboxylic acid, 2-(difluoromethyl)-6-methoxy-4-(2-methylpropyl)-, dimethyl ester] | 75 to 100 | 75 to 100 | 0 to 24 | 0 to 24 | 75 to 100 | 75 to 100 | 50 to 74 | 75 to 100 | 75 to 100 | 75 to 100 | 75 to 100 |
| C=CCOc1nc(C(F)(F)F)c(C(=O)OC)c(CC(C)C)c1C(=O)OCC [Compound 23, 3,5-pyridinecarboxylic acid, 4-(2-methy1-propyl)-2-(2-propenyloxy)-6-(trifluoromethyl)-, 3-ethyl 5-methyl ester, hydrate (1:0.3)] | 75 to 100 | 75 to 100 | 0 to 24 | 0 to 24 | 75 to 100 | 25 to 49 | 0 to 24 | 25 to 49 | 75 to 100 | 75 to 100 | 25 to 49 |
